Test results taken from PubChem BioAssay (NCI).
Where “and” joins values, the source holds several entries; their conditions need not be identical. Equal values may be shown once.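 Interpolation was linear, between the two tested concentrations surrounding the appropriate level; five concentrations were tested over 48 hours in 96-well plates. Abbreviation: GI50, concentration required for 50% inhibition of growth. TGI marks complete inhibition of growth.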

Columns and labels:
Experiment in all cases: growth of human tumour cells (NCI), 48 h
SK-MEL-28 melanoma = tested on: SK-MEL-28 melanoma
NCI-H460 lung = tested on: NCI-H460 lung
SF-539 CNS = tested on: SF-539 CNS
HL-60(TB) leukemia = tested on: HL-60(TB) leukemia
DU-145 prostate = tested on: DU-145 prostate
A549 NSCLC = tested on: A549 NSCLC
UACC-62 melanoma = tested on: UACC-62 melanoma
CCRF-CEM leukemia = tested on: CCRF-CEM leukemia
ACHN renal = tested on: ACHN renal
T-47D breast = tested on: T-47D breast

Row | SMILES | GI50 (SK-MEL-28 melanoma) | TGI (SK-MEL-28 melanoma) | GI50 (NCI-H460 lung) | TGI (NCI-H460 lung) | GI50 (SF-539 CNS) | TGI (SF-539 CNS) | GI50 (HL-60(TB) leukemia) | TGI (HL-60(TB) leukemia) | GI50 (DU-145 prostate) | TGI (DU-145 prostate) | GI50 (A549 NSCLC) | TGI (A549 NSCLC) | GI50 (UACC-62 melanoma) | TGI (UACC-62 melanoma) | GI50 (CCRF-CEM leukemia) | TGI (CCRF-CEM leukemia) | GI50 (ACHN renal) | TGI (ACHN renal) | GI50 (T-47D breast) | TGI (T-47D breast)
1 | CC(C)c1ccc2c(c1)CCC1C2CCCC1(C)NCc1ccccc1 (stereo not drawn) | 1.98 µM | 3.83 µM | 3.43 µM | 12.9 µM | 5.5 µM | 18.5 µM | 2.34 µM | 6.85 µM | 8.61 µM | 24.3 µM | 15.5 µM | 31.1 µM | 1.96 µM | 4.39 µM | 5.32 µM | 27.9 µM | 10 µM | 22.7 µM | 2.22 µM | 4.63 µM
2 | O=C(NO)c1ccc(CNc2cccc3nc(C4CC4)n(-c4ccccc4)c(=O)c23)cc1 | 2.01 µM | 4.26 µM | 1.9 µM | 5.65 µM | 1.71 µM | 3.53 µM | 2.39 µM | 5.64 µM | 2.52 µM | 13.7 µM | 2.23 µM | 5.74 µM | 1.96 µM | 4.66 µM | 1.5 µM | > 100 µM | 1.92 µM | 4.67 µM | 2.08 µM | 7.34 µM
3 | C/C(=C\c1csc(C)n1)[C@@H]1C[C@@H]2O[C@]2(C)CCC[C@H](C)[C@H](O)[C@@H](C)C(=O)C(C)(C)[C@@H](O)CC(=O)N1 | 0.000219 µM | 0.000436 µM | 0.000109 µM | 0.00036 µM | 0.000165 µM | 0.000369 µM | 8.3e-05 µM | 0.000163 µM | 0.000166 µM | 0.000254 µM | 9.28e-05 µM | 0.000294 µM | 0.000171 µM | 0.000412 µM | 0.000125 µM | 0.000203 µM | 0.000324 µM | 0.000478 µM | 0.000189 µM | 0.000469 µM
4 | O=C1NC(=O)C2C3C=CC(C12)C1C2C(=O)NC(=O)C2C31 (stereo not drawn) | 938 µM | 244 µM and > 1000 µM | 47 µM and 74.4 µM | 203 µM and > 1000 µM | 316 µM | 199 µM and > 1000 µM | – | 206 µM and > 1000 µM | > 619 µM | > 1000 µM | 172 µM | 250 µM and > 1000 µM | 636 µM | 227 µM and > 1000 µM | 237 µM | 250 µM and > 1000 µM | 766 µM | > 1000 µM | 480 µM | > 1000 µM
5 | CC1=C(C(=O)Nc2ccc3[nH]ncc3c2)C(c2ccc(F)cc2)N=C(c2ccc(C(F)(F)F)nc2)N1 (stereo not drawn) | > 19.9 µM | > 25 µM | 11.8 µM | > 25 µM | 7.61 µM | > 25 µM | 6.67 µM | > 25 µM | > 25 µM | > 25 µM | 13.4 µM | > 25 µM | 10.1 µM | > 25 µM | 17 µM | > 25 µM | 13.3 µM | > 25 µM | > 20 µM | > 25 µM
6 | COc1nc(N)nc2nc[nH]c12 | > 1000 µM | > 1000 µM | 674 µM and 588 µM | 500 µM and 800 µM and > 1000 µM | > 800 µM | 500 µM and > 800 µM and > 1000 µM | 715 µM and 210 µM | 500 µM and 800 µM and > 1000 µM | 720 µM | 500 µM and > 1000 µM | > 800 µM and 713 µM | > 1000 µM | 441 µM and 349 µM | 429 µM and 800 µM and > 1000 µM | 563 µM | 407 µM and 800 µM and > 920 µM | 454 µM and 381 µM | 500 µM and 800 µM and > 1000 µM | > 779 µM | 500 µM and > 1000 µM
7 | CNS(=O)(=O)Nc1nccc(Cc2c(C)c3ccc(Oc4ncccn4)cc3oc2=O)c1F | 0.0234 µM and 0.00549 µM | – | > 62 µM | > 100 µM | 61.5 µM and > 10 µM | > 100 µM | 0.0449 µM and 0.00891 µM | > 100 µM | 39 µM and > 10 µM | > 100 µM | 0.674 µM and 1.08 µM | > 100 µM | < 0.0105 µM and 0.00277 µM | 0.0941 µM | > 100 µM | > 100 µM | 4.92 µM and > 2.21 µM | > 100 µM | 16.1 µM and > 10 µM | > 100 µM
8 | O=C(O)CSc1cc(NS(=O)(=O)c2ccc(Br)cc2)c2ccccc2c1O | 14.5 µM | 29 µM | 18.8 µM | 37.4 µM | 17.8 µM | 32.8 µM | 3.05 µM | > 26.8 µM | 16.5 µM | 30.1 µM | 22.8 µM | 42.6 µM | 7.81 µM | 23.4 µM | 4.37 µM | > 44.8 µM | 12.8 µM | 26.6 µM | 4.84 µM | 23.1 µM
9 | Cc1ccc(-c2nc([P+](c3ccccc3)(c3ccccc3)c3ccccc3)c(N3CCOCC3)o2)cc1 | 0.515 µM | 9.18 µM | 0.468 µM | 10.8 µM | 0.787 µM | 10.1 µM | 0.246 µM | 0.738 µM | 0.472 µM | 10.9 µM | 0.5 µM | 14 µM | 0.35 µM | 1.45 µM | 0.588 µM | 11.3 µM | 2.32 µM | 7.53 µM | 0.23 µM | 1.83 µM
10 | Cn1cc(-c2ccc3c(c2)ncn3-c2cc(NS(=O)(=O)C3CC3)cc(-c3ccc(F)cc3F)c2)cn1 | 20.9 µM | > 100 µM | 23.4 µM | > 100 µM | 1.37 µM | 12.7 µM | 11.9 µM | 45.4 µM | 21.2 µM | > 100 µM | 9.01 µM | > 100 µM | 25.5 µM | 73.1 µM | 7.5 µM | > 100 µM | 5 µM | 66.9 µM | 7.39 µM | 62.8 µM
11 | O=c1c(Oc2ccc(F)cc2F)cc2cnc(NC3CCOCC3)nc2n1C1CC1 | > 25 µM | > 25 µM | > 25 µM | > 25 µM | > 25 µM | > 25 µM | > 25 µM | > 25 µM | > 25 µM | > 25 µM | > 25 µM | > 25 µM | > 25 µM | > 25 µM | > 25 µM | > 25 µM | > 25 µM | > 25 µM | 19.3 µM | > 25 µM
12 | O=C1C[C@@H]2OCC=C3C[N+]4([O-])CC[C@]56c7ccccc7N1[C@H]5[C@H]2[C@H]3C[C@@H]64 (stereo partly drawn) | > 100 µM | > 100 µM | > 100 µM | > 100 µM | > 100 µM | > 100 µM | > 100 µM | > 100 µM | > 100 µM | > 100 µM | > 100 µM | > 100 µM | > 100 µM | > 100 µM | > 100 µM | > 100 µM | > 100 µM | > 100 µM | > 100 µM | > 100 µM
13 | CC(=O)O[C@H]1C[C@@H]2[C@@]3(C)CC[C@H]4C[C@@]4(C)[C@@H]3CC[C@@]2(C)C2=CCC3=C(COC3=O)[C@]21C | 21.6 µM | 44 µM | 29.9 µM | > 100 µM | 15.7 µM | 32.5 µM | 52.7 µM | > 100 µM | 15.6 µM | 38.5 µM | 20.8 µM | 44.4 µM | 16.6 µM | 36.4 µM | 33.6 µM | > 100 µM | 21.5 µM | 43.9 µM | 20.7 µM | 54.7 µM
14 | Oc1c(Br)cc(Cl)cc1C(c1cc(Cl)cc(Br)c1O)C(Cl)(Cl)Cl | 3.7 µM | 14.9 µM | 2.4 µM | 8.53 µM | 3.15 µM | 10.7 µM | 3.02 µM | 7.6 µM | 4.74 µM | 16.2 µM | 3.13 µM | 11.7 µM | 1.94 µM | 8.99 µM | 0.996 µM | 9.71 µM | 3.06 µM | 9.81 µM | 2.84 µM | 11.1 µM
15 | O=C1[C@H](Cc2ccc(O)cc2)N2C(=O)CCN(C(=O)NCc3ccccc3)[C@H]2CN1Cc1cccc2ccccc12 | 0.79 µM | 9.63 µM | 1.73 µM | 7.23 µM | 0.926 µM | 7.4 µM | 4.84 µM | 27.3 µM | 4.55 µM | 46.5 µM | 2.66 µM | > 50.6 µM | 4.45 µM | 25 µM | 2.19 µM | > 53.1 µM | 4.73 µM | 57.7 µM | 2.34 µM | 15.4 µM
